Test results reported in ChEMBL document CHEMBL1138806, “A cyclopent-2-enecarbonyl group mimics proline at the P2 position of prolyl oligopeptidase inhibitors” (J Med Chem, 2004).

Experiments:
Prolyl endopeptidase [1] = molecular target: T1, Prolyl endopeptidase (Sus scrofa, UniProt P23687); assay: Inhibitory activity against prolyl oligopeptidase of porcine brain homogenate
[2] = Partition coefficient (logP) determined in a 1-octanol-phosphate buffer system; assay type: physicochemical
Prolyl endopeptidase [3] = molecular target: T1, Prolyl endopeptidase; assay: Inhibitory activity against purified porcine prolyl oligopeptidase

T1 sequence (P23687 whole entry): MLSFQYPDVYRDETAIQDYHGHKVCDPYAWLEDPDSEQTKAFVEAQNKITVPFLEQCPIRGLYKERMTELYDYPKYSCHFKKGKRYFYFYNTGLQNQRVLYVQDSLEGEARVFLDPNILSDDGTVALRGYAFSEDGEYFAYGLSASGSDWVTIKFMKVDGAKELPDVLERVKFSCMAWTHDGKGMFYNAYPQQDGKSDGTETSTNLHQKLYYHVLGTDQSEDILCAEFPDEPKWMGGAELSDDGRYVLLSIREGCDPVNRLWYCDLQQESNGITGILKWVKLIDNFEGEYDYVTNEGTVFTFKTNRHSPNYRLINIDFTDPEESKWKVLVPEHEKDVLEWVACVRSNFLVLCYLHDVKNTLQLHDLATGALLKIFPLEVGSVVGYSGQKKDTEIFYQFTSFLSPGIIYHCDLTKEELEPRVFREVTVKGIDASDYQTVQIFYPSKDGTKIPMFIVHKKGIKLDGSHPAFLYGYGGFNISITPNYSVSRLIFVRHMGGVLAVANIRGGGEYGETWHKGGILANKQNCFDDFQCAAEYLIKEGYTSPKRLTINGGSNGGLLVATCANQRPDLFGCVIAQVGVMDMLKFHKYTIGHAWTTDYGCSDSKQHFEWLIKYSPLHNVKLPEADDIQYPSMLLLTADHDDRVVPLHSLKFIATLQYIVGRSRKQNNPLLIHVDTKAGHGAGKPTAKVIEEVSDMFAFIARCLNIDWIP

Row | Compound | IC50 (Prolyl endopeptidase [1]) | logP [2] | Ki (Prolyl endopeptidase [3])
1 | N#C[C@@H]1CCCN1C(=O)[C@@H]1CCCN1C(=O)CCCc1ccccc1 | – | 1.6 | –
2 | O=C(NCc1ccccc1)C1=C(C(=O)N2CCCC2)CCC1 | 230 nM | – | –
3 | O=C([C@@H]1CCCN1C(=O)CCCc1ccccc1)N1CCCC1 | – | 1.8 | –

Results, then the molecule that gave them:

Row | IC50 (Prolyl endopeptidase [1]) | logP [2] | Ki (Prolyl endopeptidase [3]) | Compound
4 | 0.3 nM | 0.6 | 0.15 nM | O=C(NCc1ccccc1)C1=CCC[C@H]1C(=O)N1CCC[C@H]1C(=O)CO
5 | 0.2 nM | 0.2 | 0.06 nM | O=C(CO)[C@@H]1CCCN1C(=O)[C@@H]1CCCN1C(=O)NCc1ccccc1
6 | 0.2 nM | 2.4 | 0.03 nM | N#C[C@@H]1CCCN1C(=O)[C@@H]1CCC=C1C(=O)CCCc1ccccc1
7 | 52 nM | – | – | O=C(NCc1ccccc1)C1=CCC[C@@H]1C(=O)N1CCC[C@H]1C(=O)CO
8 | 5 nM | – | – | N#C[C@@H]1CCCN1C(=O)[C@H]1CCC=C1C(=O)CCCc1ccccc1
